Laboratory results from patent US20230372433A1, “NANOPARTICLE FOR ANTI-CANCER PEPTIDES AND USES THEREOF” (KING'S COLLEGE LONDON, priority 2020, published 2023).
Like-named read-outs stand apart in the source and are kept apart here.

Tests used:
[1] = tested on: U2OS (human bone osteosarcoma); test: MTT cytotoxicity assay, U2OS; format: cell-based; details: 72 hr
[2] = ANTS/DPX liposome leakage assay, POPC vesicles; format: biochemical; details: 0.5 mM vesicles
Experimental: (§1) In brief, 0.5 mM POPC vesicles (grey) or POPC:POPG vesicles (ratio 3:1, black) were incubated with peptide concentrations of 0, 0.02, 0.04, 0.08, 0.16, 0.32, 0.64, 1.25, 2.5, 5, 10, and 20 μM in each A) hydrochloric acid-adjusted phosphate buffered saline (1X, pH 4.8) and B) phosphate buffered saline (1X, pH 7.4).
(§2) The lipids 1-palmitoyl-2-oleoyl-sn-glycero-3-phosphocholine (POPC), 1-palmitoyl-2-oleoyl-snglycero-3-phospho-(1′-rac-glycerol) (POPG) were purchased from Avanti Polar Lipids and dissolved in chloroform. Large unilamellar vesicles (LUVs) were produced by extrusion through 100 nm pore filter using an extruder and filters purchased from Avanti Polar Lipids.
(§3) 5 mM ANTS (8-aminonaphthalene-1,3,6-trisulfonic acid, disodium salt) and 12.5 mM DPX (p-xylene-bis-pyridinium bromide) were entrapped in 0.1 μm diameter extruded vesicles with lipids. Gel filtration chromatography using a Sephadex G-100 (GE Healthcare Life Sciences Inc) was used to remove external free ANTS/DPX from LUVs with entrapped contents. LUVs were diluted to 0.5 mM and used to measure the leakage activity by addition of aliquots of peptides. Leakage was measured after 3 h incubation. 10% Triton was used as the positive control to measure the maximum leakage of the vesicle. Fluorescence emission spectra were recorded using excitation and emission wavelength of 350 nm and 510 nm for ANTS/DPX using a BioTek Synergy H1 Hybrid Multi-Mode Reader.
(§4) Table 4 illustrates peptide concentration-induced 50 ANTS/DPX liposome leakage. 0.5 mM POPC and 3POPC/1POPG vesicles were fixed and incubated with titrated peptide concentration (0, 0.02, 0.04, 0.08, 0.16, 0.32, 0.64, 1.25, 2.5, 5, 10, and 20 μM) each in phosphate buffered saline (1X, pH 7.4) and hydrochloric acid-adjusted phosphate buffered saline (1X, pH 4.8). The values are shown as lipid per peptide. IN-terminus is free, C-terminus: —W—NH2.

[3] = tested on: HMLER-shEcad (human breast cancer stem cell); test: MTT cytotoxicity assay, HMLER-shEcad; format: cell-based; details: 72 hr, MTT; read-out: IC50 HMLER-shEcad
[4] = tested on: MCF-10A (human breast epithelial cell); test: cells
Description: HMLER (human mammary endothelial cancer cells), HMLER-shEcad (human mammary endothelial cancer stem cells), and MCF-10A (healthy human mammary endothelial) cells were maintained in Mammary Epithelial Cell Growth Medium (MEGM) with supplements and growth factors: bovine pituitary extract (BPE), hydrocortisone, human epidermal growth factor (hEGF), insulin, and gentamicin/amphotericin-B. HEK293T (human embryonic kidney cell), and U2OS (homo sapiens bone osteosarcoma) cells were maintained in Dulbecco's Modified Eagle's Medium (DMEM) with a final concentration of 10% fetal bovine serum. The cells were grown in T75 flask at 310 K in a humidified atmosphere containing 5% CO2.
The colourimetric MTT (3-(4,5-dimethylthiazol-2-yl)-2,5-diphenyltetrazolium bromide) assay was used to determine the toxicity of the anti-cancer peptides and conventional anti-cancer drugs. 5×10^3 cells were seeded in each well of a 96-well microplate. The cells were incubated overnight. Elevated concentrations of the compounds (0, 0.1, 0.2, 0.4, 0.8, 1.6, 3.1, 6.3, 12.5, 25, 50 and 100 μM) were added and incubated for 72 hr with a total volume 200 μL. The stock solutions of the compounds were prepared as 5 mM solutions in DMSO and diluted using media or in pure water. The final concentration of DMSO in each well was either 0.5% or 0% and this amount was present in the untreated control. After 72 hr, 20 μL of a 4 mg/mL solution of MTT in PBS was added to each well, and the plate was incubated for an additional 4 hr. The MEGM/MTT mixture was aspirated and 100 μL of DMSO was added to dissolve the resulting purple formazan crystals. The absorbance of the solutions in each well was read at 550 nm wavelength. Absorbance values were normalized to either DMSO-containing or non DMSO-containing control wells and plotted as concentration of test compound versus % cell viability. ICso values were interpolated from the resulting dose dependent curves.
The peptides were screened against several different human cell lines and their cytotoxicity were determined. Cell lines utilised include MCF-10A (human breast epithelial cell), HMLER (human breast cancer bulk cell), HMLER-shEcad (human breast cancer stem cell), HEK293T (human embryonic kidney cell), and U2OS (human bone osteosarcoma).

[5] = tested on: HEK293T (human embryonic kidney cell); test: MTT cytotoxicity assay, HEK293T; format: cell-based; details: 72 hr, MTT; read-out: IC50 HEK293T
[6] = tested on: HMLER (human breast cancer bulk cell); test: MTT cytotoxicity assay, HMLER; format: cell-based; details: 72 hr, MTT; read-out: IC50 HMLER
[7] = Tryptophan fluorescent binding assay, POPC vesicles; details: 50 μM peptide, PBS pH 7.4
Experimental: (§5) In brief, 50 μM peptides were fixed and incubated with titrated POPC vesicles (black) or 3POPC/1POPG vesicles (grey) at concentrations of 0, 12.5, 25, 50, 100, 250, 500, 1000, 2500, and 5000 μM in phosphate buffered saline (1X, pH 7.4). The lipid concentration that causes 50% peptide binding was determined using a tryptophan fluorescent binding assay and the values are shown as lipid per peptide.
as §2
(§6) Peptides (50 μM) and POPC/POPG LUVs (600 μM) were prepared in 10 mM phosphate buffer (pH 7.0). The solutions were incubated and measured after 60 minutes. Excitation was fixed at 280 nm (slit 9 nm) and emission was collected from 300 to 450 nm (slit 9 nm). The spectra were recorded using a Synergy H1 Hybrid Multi-Mode Reader (FIG. 3A) and Cytation™ 5 Cell Imaging Multi-Mode Reader (FIG. 2) from BioTek and were averaged over 3 scans.
(§7) Table 3 illustrates the lipid concentration-induced 50% peptide binding onto a liposome. 50 μM peptide was fixed and incubated with titrated lipid (POPC vesicles or 3POPC/1POPG vesicles) at concentrations of 0, 12.5, 25, 50, 100, 250, 500, 1000, 2500, and 5000 μM in phosphate buffered saline (1X, pH 7.4). The lipid concentration that causes 50% peptide binding was determined using tryptophan fluorescent binding assay and the values are shown as lipid per peptide. IN-terminus is free, C-terminus: —W—NH2.

[8] = ANTS/DPX liposome leakage assay, 3POPC/1POPG vesicles; format: biochemical; details: for Peptide Concentration-induced 50% ANTS/DPX leakage at pH 4.8 (L/P) 3POPC/1POPG Vesicle / Peptide Concentration-induced 50% ANTS/DPX leakage at pH 7.4 (L/P) 3POPC/1POPG Vesicle: 0.5 mM vesicles
Experimental: as §1, §2, §3, §4

[9] = Tryptophan fluorescent binding assay, 3POPC/1POPG vesicles; details: 50 μM peptide, PBS pH 7.4
Experimental: as §5, §2, §6, §7

[10] = read-out: IC50 MCF-10A, 72 hr, MTT

Compound	IC50 [1]	Peptide Concentration-induced 50% ANTS/DPX leakage at pH 4.8 (L/P) POPC Vesicle [2]	Peptide Concentration-induced 50% ANTS/DPX leakage at pH 7.4 (L/P) POPC Vesicle [2]	IC50 [3]	IC50 [4, 10]	IC50 [5]	IC50 [6]	Lipid Concentration-induced 50% Peptide Binding (L/P) POPC Vesicle [7]	Peptide Concentration-induced 50% ANTS/DPX leakage at pH 4.8 (L/P) 3POPC/1POPG Vesicle ([8]; pH 4.8)	Peptide Concentration-induced 50% ANTS/DPX leakage at pH 7.4 (L/P) 3POPC/1POPG Vesicle [8]	Lipid Concentration-induced 50% Peptide Binding (L/P) 3POPC/1POPG Vesicle [9]	IC50 [4]	liposome leakage activity from anionic vesicle at pH 4.8 ([8]; compared with zwitterionic vesicle, pH 4.8)
GLLKLLHLLLKAAG [KHK]	12.9 ± 1.24 µM	140 L/P	1153 L/P	1.4 ± 0.14 µM	1.81 ± 0.05 µM	3.55 ± 0.78 µM	2.59 ± 0.92 µM	0.17 L/P	53 L/P	193 L/P	0.38 L/P		
GLLKLLELLLHAAG [KEH]	49.2 ± 5.3 µM	188 L/P	995 L/P	2.35 ± 0.07 µM	20 µM	5.65 ± 0.07 µM	3.3 ± 0.42 µM	1.00 L/P	68 L/P	286 L/P	0.50 L/P		
GLLKLLKLLLEAAG [KKE]	12.8 ± 1.2 µM	143 L/P	1133 L/P	1.7 µM	2.9 ± 0.57 µM	4.4 ± 0.14 µM	2.05 ± 0.64 µM	0.48 L/P	131 L/P	346 L/P	0.44 L/P		
GLLELLKLLLEAAG [EKE]	8 ± 0.71 µM	75 L/P	738 L/P	1.3 ± 0.14 µM	8.8 µM	5.15 ± 0.21 µM	1.8 ± 0.28 µM	2.75 L/P	438 L/P	657 L/P	1.63 L/P		
CC(C)C[C@H](NC(=O)CN)C(=O)N[C@@H](CC(C)C)C(=O)N[C@@H](CCC(=O)O)C(=O)N[C@@H](CC(C)C)C(=O)N[C@@H](CC(C)C)C(=O)N[C@@H](Cc1c[nH]cn1)C(=O)N[C@@H](CC(C)C)C(=O)N[C@@H](CC(C)C)C(=O)N[C@@H](CC(C)C)C(=O)N[C@@H](CCC(=O)O)C(=O)N[C@@H](C)C(=O)N[C@@H](C)C(=O)NCC(=O)N[C@@H](Cc1c[nH]c2ccccc12)C(N)=O [EHE]	18.2 ± 1.06 µM	75 L/P	952 L/P	2.55 ± 0.07 µM		13 µM	3.9 ± 0.28 µM	0.44 L/P	384 L/P	706 L/P	0.44 L/P	≥ 100 µM	relatively higher liposome leakage activity
GLLHLLKLLLKAAG [HKK]	12.23 ± 0.11 µM	106 L/P	657 L/P	2.6 ± 0.42 µM	2.18 ± 0.39 µM	9.5 ± 0.99 µM	3.4 ± 0.71 µM	0.18 L/P	106 L/P	90 L/P	0.14 L/P		
GLLELLKLLLKAAG [EKK]	12.2 ± 1.84 µM	60 L/P	1095 L/P	1.19 ± 0.4 µM	1.7 ± 0.11 µM	3.35 ± 0.49 µM	1.72 ± 0.21 µM	1.50 L/P	219 L/P	235 L/P	0.63 L/P		
CC(C)C[C@H](NC(=O)CN)C(=O)N[C@@H](CC(C)C)C(=O)N[C@@H](CCC(=O)O)C(=O)N[C@@H](CC(C)C)C(=O)N[C@@H](CC(C)C)C(=O)N[C@@H](CCC(=O)O)C(=O)N[C@@H](CC(C)C)C(=O)N[C@@H](CC(C)C)C(=O)N[C@@H](CC(C)C)C(=O)N[C@@H](CCC(=O)O)C(=O)N[C@@H](C)C(=O)N[C@@H](C)C(=O)NCC(=O)N[C@@H](Cc1c[nH]c2ccccc12)C(N)=O [EEE]	78.8 ± 5.3 µM	35 L/P	143 L/P	10.6 ± 3.46 µM		50 µM	6.25 ± 1.77 µM	1.33 L/P	28 L/P	346 L/P	4.50 L/P	≥ 100 µM	
GLLELLKLLLHAAG [EKH]	23.8 ± 0.81 µM	55 L/P	608 L/P	2.18 ± 0.31 µM	7.9 ± 0.42 µM	6.65 ± 1.34 µM	2.75 ± 0.07 µM	0.75 L/P	88 L/P	365 L/P	0.19 L/P		
